Results from patent US20050245563A1 (Millennium Pharmaceuticals, Inc., priority 2003, published 2005).
Structures can show the parent of a compound that is named as a salt.

These compounds were tested against T1, human Chk1 (GST-Chk1) (Homo sapiens, UniProt O14757) (assay: Chk1 DELFIA kinase assay (2 nM GST-Chk1, 600 μM ATP)). Details: Biotin-GLYRSPSMPEN-amide substrate.
T1 construct: made in house; host or cells: insect cells (baculovirus, Bac-to-Bac)
T1 sequence (O14757 1-476): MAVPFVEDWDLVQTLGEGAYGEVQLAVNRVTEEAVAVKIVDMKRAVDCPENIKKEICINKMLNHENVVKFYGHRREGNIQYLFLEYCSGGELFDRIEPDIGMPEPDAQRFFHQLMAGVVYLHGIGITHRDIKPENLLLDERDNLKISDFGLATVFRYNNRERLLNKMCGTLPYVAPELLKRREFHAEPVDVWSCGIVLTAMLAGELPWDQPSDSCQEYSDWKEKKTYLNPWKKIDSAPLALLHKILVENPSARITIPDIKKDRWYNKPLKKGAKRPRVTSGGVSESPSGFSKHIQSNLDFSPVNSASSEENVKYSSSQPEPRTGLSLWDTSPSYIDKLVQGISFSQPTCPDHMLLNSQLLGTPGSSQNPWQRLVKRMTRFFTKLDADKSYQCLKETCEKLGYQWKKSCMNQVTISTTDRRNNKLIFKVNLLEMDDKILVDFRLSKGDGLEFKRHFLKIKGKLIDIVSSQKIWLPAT
Type: biochemical
Procedure, shortened: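 Enzyme is N-terminal GST-Chk1 from baculovirus/insect cells, assayed with 1 μM biotin-GLYRSPSMPEN-amide in pH 7.5 Tris buffer, 4% DMSO and 10 mM MgCl2 for 50 min at room temperature. EDTA-stopped reactions were captured on NeutrAvidin. Phospho-peptide was detected by anti-phospho-Ser216-Cdc25c antibody with europium-labeled secondary and time-resolved fluorescence.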

IC50, < 1 µM:
Cc1[nH]nc2c1c(=O)n(CCCNC(=O)c1ccc(Cl)cc1)c1ccc(C#CCN3CCCC3)cc21 [Example 332, 4-Chloro-N-{3-[3-methyl-4-oxo-8-(3-pyrrolidin-1-yl-prop-1-ynyl)-2,4-dihydro-pyrazolo[4,3-c]quinolin-5-yl]-propyl}-benzamide]
Cc1[nH]nc2c1c(=O)n(CCCNC(=O)c1ccc(Cl)cc1)c1ccc(CCCN3CCCC3)cc21 [Example 333]
Cc1[nH]nc2c1c(=O)n(CCCN)c1cc(C(=O)NCCN(C)C)ccc21 [Example 335, 5-(3-Amino-propyl)-3-methyl-4-oxo-4,5-dihydro-2H-pyrazolo[4,3-c]quinoline-7-carboxylic acid (2-dimethylamino-ethyl)-amide]
Cc1[nH]nc2c1c(=O)n(CCCN)c1cc(C(=O)NCCN3CCCC3)ccc21 [Example 336, 5-(3-Amino-propyl)-3-methyl-4-oxo-4,5-dihydro-2H-pyrazolo[4,3-c]quinolin-7-carboxylic acid (2-pyrrolidin-1-yl-ethyl)-amide]
Cc1[nH]nc2c1c(=O)n(CCCN)c1cc(C(=O)NCCCN(C)C)ccc21 [Example 337]
Cc1[nH]nc2c1c(=O)n(CCCN)c1cc(C(=O)NCCCCN(C)C)ccc21 [Example 338]
Cc1[nH]nc2c1c(=O)n(CCCN)c1cc(I)ccc21 [Example 339, 5-(3-Aminopropyl)-7-iodo-3-methyl-2,5-dihydro-pyrazolo[4,3-c]quinolin4-one]
Cc1[nH]nc2c1c(=O)n(CCCN)c1cc(C#CCN3CCCC3)ccc21 [Example 340, 5-(3-Amino-propyl)-3-methyl-7-(3-pyrrolidin-1-yl-prop-1-ynyl)-2,5-dihydro-pyrazolo [4,3-c]quinolin-4-one]
Cc1[nH]nc2c1c(=O)n(CCCN)c1cc(CCCN3CCCC3)ccc21 [Example 341, 5-(3-Amino-propyl)-3-methyl-7-(3-pyrrolidin-1-yl-propyl)-2,5-dihydro-pyrazolo[4,3-c]quinolin-4-one]
Cc1[nH]nc2c1c(=O)n(C)c1c(C#CCN)cc(Cl)cc21 [Example 342, 6-(3-amino-prop-1-ynyl)-8-chloro-3,5-dimethyl-2,5-dihydro-pyrazolo[4,3-c]quinolin-4-one]
Cc1[nH]nc2c1c(=O)n(CCCN)c1ccc(C(=O)NCCN(C)C)cc21 [Example 352, 5-(3-Amino-propyl)-3-methyl-4-oxo-4,5-dihydro-2H-pyrazolo[4,3-c]quinoline-8-carboxylic acid (2-dimethylamino-ethyl)-amide]
Cc1[nH]nc2c1c(=O)n(CCCN)c1ccc(CCc3cccnc3)cc21 [Example 353, 5-(3-Amino-propyl)-3-methyl-8-(2-pyridin-3-yl-ethyl)-2,5-dihydro-pyrazolo[4,3-c]quinolin-4-one]
COCCc1[nH]nc2c1c(=O)n(CCCN)c1ccc(C)cc21 [Example 354, 5-(3-Amino-propyl)-3-(2-methoxy-ethyl)-8-methyl-2,5-dihydro-pyrazolo[4,3-c]quinolin-4-one]
NCCCn1c(=O)c2c(CCOCc3ccccc3)[nH]nc2c2cc(Cl)ccc21 [Example 362, 5-(3-Amino-propyl)-3-(2-benzyloxy-ethyl)-8-chloro-2,5-dihydro-pyrazolo[4,3-c]quinolin-4-one]
CCc1ccc2c(c1)c1n[nH]c(CCO)c1c(=O)n2CCCO [Example 363, 8-Ethyl-3-(2-hydroxy-ethyl)-5-(3-hydroxy-propyl)-2,5-dihydro-pyrazolo[4,3-c]quinolin-4-one]
CCCc1[nH]nc2c1c(=O)n(CCCN)c1ccc(Cl)cc21 [Example 364, 5-(3-Amino-propyl)-8-chloro-3-propyl-2,5-dihydro-pyrazolo[4,3-c]quinolin-4-one]
NCCCn1c(=O)c2c(C3CCCC3)[nH]nc2c2cc(Cl)ccc21 [Example 365, 5-(3-Amino-propyl)-8-chloro-3-cyclopentyl-2,5-dihydro-pyrazolo[4,3-c]quinolin4-one]
Cc1[nH]nc2c1c(=O)n(CCCN)c1cc(C(=O)NCCc3cccnc3)ccc21 [Example 366, 5-(3-Amino-propyl)-3-methyl-4-oxo-4,5-dihydro-2H-pyrazolo[4,3-c]quinoline-7-carboxylic acid (2-pyridin-3-yl-ethyl)-amide]
Cc1[nH]nc2c1c(=O)n(C)c1c(CCCO)cc(Cl)cc21 [Example 367, 8-Chloro-6-(3-hydroxy-propyl)-3,5-dimethyl-2,5-dihydro-pyrazolo[4,3-c]quinolin-4-one]
CCN(CC)CCC(=O)Nc1ccc2c(c1)c1n[nH]c(C)c1c(=O)n2CCCN [Example 368, N-[5-(3-Amino-propyl)-3-methyl-4-oxo-4,5-dihydro-2H-pyrazolo[4,3-c]quinolin-8-yl]-3-diethylamino-propionamide]
Cc1[nH]nc2c1c(=O)n(CCCN)c1ccc(NC(=O)CCN3CCCCC3)cc21 [Example 369, N-[5-(3-Amino-propyl)-3-methyl4-oxo-4,5-dihydro-2H-pyrazolo[4,3-c]quinolin-8-yl]-3-piperidin-1-yl-propionamide]

Each compound was assayed against T1, human Chk1 (GST-Chk1) (assay: Chk1 FlashPlate kinase assay). Details: 8.7 nM GST-Chk1, 1 uM ATP, 33P incorporation into peptide substrate.
Type: biochemical
Description: Recombinant human Chk1 was expressed as a fusion protein with glutathione S-transferase at the amino-terminus (GST-Chk1) using standard baculovirus vectors and (Bac-to-Bac®) insect cell expression system purchased from GIBCO™ Invitrogen. Recombinant protein expressed in insect cells was purified using glutathione sepharose (Amersham Biotech) using standard procedures described by the manufacturer.
Chk1 FlashPlate® Kinase Assay:
Assays (25 μL) contained 8.7 nM GST-Chk1, 10 mM MES, 0.1 mM ethylene glycol-bis(β-aminoethylether)-N,N,N′,N′-tetracetic acid (EGTA, pH 8.0), 2 mM DTT, 0.05% Tween 20, 3 uM peptide substrate (Biotin-ILSRRPSYRKILND-free acid) (SEQ ID NO: 1), 1 uM ATP, 0.4 uCi ^33P-γ-ATP (NEN), 4% DMSO. Reactions were incubated for 30 minutes at room temperature, terminated with 50 μL of 50 mM EDTA and 90 μL were transferred to streptavidin-coated FlashPlates® (NEN) and incubated for 1 hour at room temperature. Plates were washed with phosphate buffered salaine containing 0.01% Tween-20 and 10 mM sodium pyrophosphate. Plates were dried, sealed with Topseal™ (NEN) and amount of ^33P incorporated into the peptide substate measure using a Packard Topcount® NXT™ scintillation counter with standard settings.

IC50, 1 to 20 µM:
Cc1n[nH]c2c1c(=O)n(CCNC(=O)OC(C)(C)C)c1ccccc21 [Example 1, [2-(3-Methyl-4-oxo-1,4-dihydro-pyrazolo[4,3-c]quinolin-5-yl)-ethyl]-carbamic acid tert-butyl ester]
Cc1n[nH]c2c1c(=O)n(Cc1cccnc1)c1ccccc21 [Example 2, 3-Methyl-5-pyridin-3-ylmethyl-1,5-dihydro-pyrazolo[4,3-c]quinolin-4-one]
CC(=O)OCCn1c(=O)c2c(C)n[nH]c2c2ccccc21 [Example 3, Acetic acid 2-(3-methyl-4-oxo-1,4-dihydro-pyrazolo[4,3-c]quinolin-5-yl)-ethyl ester]
Cc1n[nH]c2c1c(=O)n(CCN(C)C)c1ccccc21 [Example 7, 5-(2-Dimethylamino-ethyl)-3-methyl-1,5-dihydro-pyrazolo[4,3-c]quinolin-4-one hydrochloride]
Cc1n[nH]c2c1c(=O)n(CCN1CCOCC1)c1ccccc21 [Example 8, 3-Methyl-5-(2-morpholin-4-yl-ethyl)-1,5-dihydro-pyrazolo[4,3-c]quinolin-4-one]

IC50, < 1 µM:
Cc1n[nH]c2c1c(=O)n(CCNCc1ccccc1)c1ccccc21 [Example 4, 5-(2-Benzylamino-ethyl)-3-methyl-1,5-dihydro-pyrazolo[4,3-c]quinolin-4-one]
Cc1n[nH]c2c1c(=O)n(CCCNCc1ccccc1)c1ccccc21 [Example 5, 5-(3-Benzylamino-propyl)-3-methyl-1,5-dihydro-pyrazolo[4,3-c]quinolin-4-one]
Cc1n[nH]c2c1c(=O)n(CCCNC(=O)OC(C)(C)C)c1ccccc21 [Example 6, [3-(3-Methyl-4-oxo-1,4-dihydro-pyrazolo[4,3-c]quinolin-5-yl)-propyl]-carbamic acid tert-butyl ester]
Cc1n[nH]c2c1c(=O)n(CCCN1CCc3ccccc3C1)c1ccccc21 [Example 9, 5-[3-(3,4-Dihydro-1H-isoquinolin-2-yl)-propyl]-3-methyl-1,5-dihydro-pyrazolo[4,3-c]quinolin-4-one]
Cc1n[nH]c2c1c(=O)n(CCO)c1ccccc21 [Example 10, 5-(2-Hydroxy-ethyl)-3-methyl-1,5-dihydro-pyrazolo[4,3-c]quinolin-4-one]
Cc1n[nH]c2c1c(=O)n(CCN)c1ccccc21 [Example 11, 5-(2-Amino-ethyl)-3-methyl-1,5-dihydro-pyrazolo[4,3-c]quinolin-4-one]
Cc1n[nH]c2c1c(=O)n(CCCOCc1ccccc1)c1ccccc21 [Example 12, 5-(3-Benzyloxy-propyl)-3-methyl-1,5-dihydro-pyrazolo[4,3-c]quinolin-4-one]
Cc1n[nH]c2c1c(=O)n(CCCNC(=O)OCc1ccccc1)c1ccccc21 [Example 13, [3-(3-Methyl-4-oxo-1,4-dihydro-pyrazolo[4,3-c]quinolin-5-yl)-propyl]-carbamic acid benzyl ester]
